The test system of experiment [1] is PAO ΔpiuC producing PDC P215L. Nature of the experiment: Cefiderocol MIC, iron uptake-deficient host. In kind it is cell-based. As to conditions: Pseudomonas aeruginosa. From the text: (§1) We took advantage of a previously constructed and characterized laboratory collection of recombinant P. aeruginosa PAO1 isolates expressing different blaPDC variants, but specifically enriched for this work with additional variants, following the previously described methodology ([17]). […] The final collection comprised 40 recombinant isolates (20 in PAO1 and 20 in PAO ΔpiuC) producing the wild-type PDC-1 variant from PAO1 and 19 derivatives carrying specific amino acid substitutions previously associated with the development of resistance to ceftazidime/avibactam, ceftolozane/tazobactam, or cefiderocol: T70I, F121L, P153L, G156D, A200T, G202S, ΔG202-E219, G214R, P215L, P215S, ΔP215-G222, D217N, E219K, E219G, E219D, S226ins, L293P, F121L + E219K, and F121L + G222S.
(§2) The MICs of ceftazidime, ceftazidime/avibactam, ceftolozane/tazobactam, cefepime, and cefiderocol were determined in triplicate, for all isolates, by reference broth microdilution assays. Avibactam and tazobactam were fixed at 4 mg/L. All assays were performed using cation-adjusted Mueller-Hinton broth (CAMHB), except for cefiderocol, which was determined in all cases using iron-depleted CAMHB, prepared according to CLSI M100 guidelines ([40]). EUCAST v.15.0 clinical breakpoints and guidelines (http://www.eucast.org/clinical_breakpoints/) were used for reference purposes. Reference strains Escherichia coli ATCC 25922, Klebsiella pneumoniae ATCC 700603, and P. aeruginosa ATCC 27853 were used as controls.

For experiment [2], the system named is PAO ΔpiuC producing PDC P215S. Nature of the experiment: Cefiderocol MIC, iron uptake-deficient host. As to conditions: Pseudomonas aeruginosa. It is filed as cell-based.
Description: as §1, §2

For experiment [3], the system named is PAO ΔpiuC producing PDC G202S. The experiment is described as follows: Cefiderocol MIC, iron uptake-deficient host. It is filed as cell-based. As to conditions: Pseudomonas aeruginosa.
Description: as §1, §2

Experiment [4] deals with PAO ΔpiuC producing PDC L293P. The experiment is described as follows: Cefiderocol MIC, iron uptake-deficient host. It is filed as cell-based. As to conditions: Pseudomonas aeruginosa.
Description: as §1, §2

Experiment [5] has as its system PAO ΔpiuC producing PDC ∆P215-G222. Nature of the experiment: Cefiderocol MIC, iron uptake-deficient host. It is filed as cell-based. As to conditions: Pseudomonas aeruginosa.
Description: as §1, §2

Experiment [6] concerns PAO ΔpiuC producing PDC E219K. The experiment is described as follows: Cefiderocol MIC, iron uptake-deficient host. In kind it is cell-based. As to conditions: Pseudomonas aeruginosa.
Description: as §1, §2

In experiment [7] the test system is PAO ΔpiuC producing PDC E219G. The experiment is described as follows: Cefiderocol MIC, iron uptake-deficient host. As to conditions: Pseudomonas aeruginosa. It is filed as cell-based.
Description: as §1, §2

Experiment [8] relates to PAO ΔpiuC producing PDC T70I. The experiment is described as follows: Cefiderocol MIC, iron uptake-deficient host. As to conditions: Pseudomonas aeruginosa. It is filed as cell-based.
Description: as §1, §2

The subject of experiment [9] is PAO ΔpiuC producing PDC-1 (WT). Nature of the experiment: Cefiderocol MIC, iron uptake-deficient host. It is filed as cell-based. As to conditions: Pseudomonas aeruginosa.
Description: as §1, §2

Experiment [10] deals with PAO ΔpiuC producing PDC A200T. Nature of the experiment: Cefiderocol MIC, iron uptake-deficient host. It is filed as cell-based. As to conditions: Pseudomonas aeruginosa.
Description: as §1, §2

Experiment [11] concerns PAO ΔpiuC producing PDC E219D. The experiment is described as follows: Cefiderocol MIC, iron uptake-deficient host. It is filed as cell-based. As to conditions: Pseudomonas aeruginosa.
Description: as §1, §2

A further experiment deals with PAO ΔpiuC. Nature of the experiment: Cefiderocol MIC, iron uptake-deficient host. It is filed as cell-based. As to conditions: Pseudomonas aeruginosa.
Description: as §1, §2

For experiment [12], the system named is PAO ΔpiuC producing PDC ∆G202-E219. Nature of the experiment: Cefiderocol MIC, iron uptake-deficient host. In kind it is cell-based. As to conditions: Pseudomonas aeruginosa.
Description: as §1, §2

For experiment [13], the system named is PAO ΔpiuC producing PDC F121L + E219K. Nature of the experiment: Cefiderocol MIC, iron uptake-deficient host. As to conditions: Pseudomonas aeruginosa. In kind it is cell-based.
Description: as §1, §2

Experiment [14] concerns PAO ΔpiuC producing PDC F121L. Nature of the experiment: Cefiderocol MIC, iron uptake-deficient host. It is filed as cell-based. As to conditions: Pseudomonas aeruginosa.
Description: as §1, §2

In experiment [15] the test system is PAO ΔpiuC producing PDC G214R. Nature of the experiment: Cefiderocol MIC, iron uptake-deficient host. It is filed as cell-based. As to conditions: Pseudomonas aeruginosa.
Description: as §1, §2

Experiment [16] has as its system E. cloacae AmpC variant with a ∆A294-P295 deletion. Further details: method as in PMID 32284381. As to conditions: relative to the parent enzyme; cited from earlier work.
Experiment [17] has as its system E219K or L293P substitutions combined with inactivating mutations affecting iron uptake (∆piuC). The experiment is described as follows: MIC, E219K or L293P with impaired iron uptake. In kind it is cell-based. As to conditions: Pseudomonas aeruginosa.
Description: as §1
The MICs of ceftazidime, ceftazidime/avibactam, ceftolozane/tazobactam, cefepime, and cefiderocol were determined in triplicate, for all isolates, by reference broth microdilution assays. Avibactam and tazobactam were fixed at 4 mg/L. All assays were performed using cation-adjusted Mueller-Hinton broth (CAMHB), except for cefiderocol, which was determined in all cases using iron-depleted CAMHB, prepared according to CLSI M100 guidelines ([40]). EUCAST v.15.0 clinical breakpoints and guidelines (http://www.eucast.org/clinical_breakpoints/) were used for reference purposes. […]

Converted amounts (≈) assume the structure as drawn.

For `CC(C)(O/N=C(\C(=O)N[C@@H]1C(=O)N2C(C(=O)[O-])=C(C[N+]3(CCNC(=O)c4ccc(O)c(O)c4Cl)CCCC3)CS[C@H]12)c1csc(N)n1)C(=O)O` [FDC, cefiderocol], the MIC (as a rule, the least concentration at which growth counts as inhibited) was 8 mg/L (≈ 10.6 µM) in experiment [1]; 8 mg/L (≈ 10.6 µM) in [2]; 8 mg/L (≈ 10.6 µM) in [3]; 32 mg/L (≈ 42.5 µM) in experiment [4]; 32 mg/L (≈ 42.5 µM) in experiment [5]; 32 mg/L (≈ 42.5 µM) in experiment [6]. Moreover, the MIC in experiment [7] was 8 mg/L (≈ 10.6 µM); in [8], 8 mg/L (≈ 10.6 µM); in experiment [9], 4 mg/L (≈ 5.32 µM); in [10], 8 mg/L (≈ 10.6 µM); in [11] it was 8 mg/L (≈ 10.6 µM); in the experiment on PAO ΔpiuC, 2 mg/L (≈ 2.66 µM). For the same compound, the minimal inhibitory concentration (MIC) in experiment [12] is 8 mg/L (≈ 10.6 µM); in experiment [13], 64 mg/L (≈ 85.1 µM); in [14], 8 mg/L (≈ 10.6 µM); in [15], 16 mg/L (≈ 21.3 µM); in experiment [17], no less than 32 mg/L. The “increase in catalytic efficiency” value in experiment [16] is “≈ 19 fold”.

These data come from PMC12217463, “Functional and structural analyses of amino acid sequence variation in PDC β-lactamase reveal different mechanistic pathways toward cefiderocol resistance in Pseudomonas aeruginosa” (Antimicrobial Agents and Chemotherapy, 2025).
